In the NIST ThermoML archive (doi:10.1016/j.jct.2005.12.010):
Numbers after ± are expanded uncertainties.

Tests used:
[1] = xn = mol fraction of the nth substance listed; details: 101 kPa, Liquid
[2] = 101 kPa, Liquid

CC1CCCC1 [methylcyclopentane] + CCO
[1]
Details | mass density, 293.15 K [kg/m3] | mass density, 298.15 K [kg/m3] | mass density, 303.15 K [kg/m3] | speed of sound, 293.15 K [m/s] | speed of sound, 298.15 K [m/s] | speed of sound, 303.15 K [m/s]
x1 = 0.0475 | 784.54 ± 0.94 | 780.2 ± 0.95 | 775.84 ± 0.96 | 1156 ± 1 | 1138 ± 1 | 1121 ± 1
x1 = 0.0967 | 780 ± 0.97 | 775.6 ± 0.99 | 771.3 ± 1 | 1153 ± 1 | 1135 ± 1 | 1117 ± 1
x1 = 0.2055 | 771.61 ± 1.1 | 767.12 ± 1.1 | 762.58 ± 1.1 | 1149 ± 2 | 1130 ± 2 | 1111 ± 2
x1 = 0.2984 | 766.18 ± 1.2 | 761.61 ± 1.2 | 756.99 ± 1.2 | 1150 ± 2 | 1130 ± 2 | 1110 ± 2
x1 = 0.4014 | 761.37 ± 1.3 | 756.73 ± 1.3 | 752.03 ± 1.3 | 1153 ± 3 | 1132 ± 2 | 1111 ± 2
x1 = 0.5007 | 757.5 ± 1.4 | 752.79 ± 1.4 | 748.03 ± 1.4 | 1158 ± 3 | 1136 ± 3 | 1114 ± 3
x1 = 0.6133 | 753.79 ± 1.6 | 749.03 ± 1.6 | 744.21 ± 1.6 | 1163 ± 3 | 1141 ± 3 | 1118 ± 3
x1 = 0.7115 | 751.2 ± 1.7 | 746.42 ± 1.7 | 741.58 ± 1.8 | 1168 ± 4 | 1146 ± 4 | 1123 ± 4
x1 = 0.8124 | 748.98 ± 1.9 | 744.19 ± 1.9 | 739.34 ± 1.9 | 1175 ± 4 | 1152 ± 4 | 1129 ± 4
x1 = 0.9073 | 747.36 ± 2.1 | 742.58 ± 2.1 | 737.75 ± 2.1 | 1183 ± 5 | 1159 ± 5 | 1136 ± 5
x1 = 0.9529 | 746.95 ± 2.1 | 742.17 ± 2.1 | 737.35 ± 2.1 | 1188 ± 5 | 1164 ± 5 | 1141 ± 5
x1 = 1 | 746.64 ± 2.2 | 741.94 ± 2.2 | 737.21 ± 2.2 | 1197 ± 5 | 1174 ± 5 | 1150 ± 5

CCCC(C)O (stereo not drawn) [pentan-2-ol]
[2]
Details | mass density [kg/m3] | speed of sound [m/s] | viscosity [mPa·s]
293.15 K | 809.04 ± 0.94 | 1250 ± 2 | 4.001 ± 0.18
298.15 K | 805.01 ± 0.95 | 1232 ± 2 | 3.273 ± 0.15
303.15 K | 800.9 ± 0.96 | 1214 ± 2 | 2.774 ± 0.12

CCCC(C)O (stereo not drawn) [pentan-2-ol] + CC1CCCC1
[1], x2 = 0
Details | speed of sound [m/s]
293.15 K | 1250 ± 2
298.15 K | 1232 ± 2
303.15 K | 1214 ± 2

CCCO [propan-1-ol]
[2]
Details | mass density [kg/m3] | speed of sound [m/s] | viscosity [mPa·s]
293.15 K | 803.59 ± 0.95 | 1223 ± 2 | 2.159 ± 0.099
298.15 K | 799.58 ± 0.96 | 1206 ± 2 | 1.915 ± 0.089
303.15 K | 795.55 ± 0.97 | 1189 ± 2 | 1.713 ± 0.08

CCCO [propan-1-ol] + CC1CCCC1
[1], x2 = 0
Details | speed of sound [m/s]
293.15 K | 1223 ± 2
298.15 K | 1206 ± 2
303.15 K | 1189 ± 2

CC(C)O [propan-2-ol]
[2]
Details | mass density [kg/m3] | speed of sound [m/s] | viscosity [mPa·s]
293.15 K | 785.07 ± 0.92 | 1156 ± 5 | 2.382 ± 0.11
298.15 K | 780.9 ± 0.9 | 1139 ± 5 | 2.045 ± 0.094
303.15 K | 776.6 ± 0.95 | 1121 ± 5 | 1.763 ± 0.082

CC(C)O [propan-2-ol] + CC1CCCC1
[1], x2 = 0
Details | speed of sound [m/s]
293.15 K | 1156 ± 5
298.15 K | 1139 ± 5
303.15 K | 1121 ± 5
